Measurements: patent US6525001B1, “Substituted pyrimidine and pyridine herbicides” (Mid-American Commercialization Corporation, priority 1997, dated 2003)

Columns and labels:
Test in all cases: Test B pre-/postemergence
Assay type in all cases: in vivo
Set-up in all cases: key: 0 is no effect; 10 is complete control
[1] = test system: momingglory (Ipomoea hederacea)
Summary of the method: (§1)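 Seeds were planted and sprayed preemergence, while plants at 2 to 18 cm (1- to 4-leaf stage) were sprayed postemergence at the same time, with test chemical in a non-phytotoxic solvent mixture containing surfactant. After twelve to sixteen days in a greenhouse, injury was rated visually against untreated controls on a 0–10 scale.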

[2] = test system: bedstraw (Galium aparine); conditions: for Bedstraw plant response rating: Preemergence
Summary of the method: as §1

[3] = test system: purple nutsedge (Cyperus rotundus)
Summary of the method: as §1

soybean (Glycine max) = test system: soybean (Glycine max)
Summary of the method: as §1

[4] = test system: wheat (Triticum aestivum)
Summary of the method: as §1

[5] = test system: sugar beet (Beta vulgaris)
Summary of the method: as §1

corn (Zea mays) = conditions: for Corn plant response rating: Preemergence
Summary of the method: as §1

[6] = test system: velvetleaf (Abutilon theophrasti)
Summary of the method: as §1

wild oat (Avena fatua) = test system: wild oat (Avena fatua)
Summary of the method: as §1

[7] = test system: giant foxtail (Setaria faberii)
Summary of the method: as §1

[8] = test system: cocklebur (Xanthium strumarium); conditions: for Cocklebur plant response rating: Preemergence
Summary of the method: as §1

[9] = test system: crabgrass (Digitaria sanguinalis); conditions: for Crabgrass plant response rating: Preemergence
Summary of the method: as §1

[10] = test system: pigweed (Amaranthus retroflexus)
Summary of the method: as §1

rape (Brassica napus) = test system: rape (Brassica napus)
Summary of the method: as §1

[11] = Rate 250 g/ha, Postemergence (so in the source)

`Cc1cnc(-n2cnc(C(F)(F)F)n2)nc1Cc1cccc(C(F)(F)F)c1` [Compound 43] was tested, and the “Plant response rating, Morningglory” value ([1]; Rate 62 g/ha, Postemergence) was 9, the “Morningglory plant response rating” value ([1]; Rate 62 g/ha, Preemergence) was 9 and the “Morningglory plant response rating” value ([1]; Rate 125 g/ha, Postemergence) was 9. For the same molecule, the “Morningglory plant response rating” value ([1]; Rate 125 g/ha, Preemergence) was 10, the “Plant response rating, Morningglory” value ([1]; Rate 250 g/ha, Postemergence) was 10 and the “Plant response rating, Morningglory” value [1, 11] was 10. The “Plant response rating, Bedstraw” value ([2]; Rate 62 g/ha, Postemergence) was 9, the “Bedstraw plant response rating” value ([2]; Rate 62 g/ha) was 8 and the “Plant response rating, Bedstraw” value ([2]; Rate 125 g/ha, Postemergence) was 10. The “Bedstraw plant response rating” value ([2]; Rate 125 g/ha) was 9, the “Plant response rating, Bedstraw” value ([2]; Rate 250 g/ha, Postemergence) was 10 and the “Plant response rating, Bedstraw” value [2, 11] was 10. For the same molecule, the “Plant response rating, Nutsedge” value ([3]; Rate 62 g/ha, Postemergence) was 0, the “Nutsedge plant response rating” value ([3]; Rate 62 g/ha, Preemergence) was 0 and the “Nutsedge plant response rating” value ([3]; Rate 125 g/ha, Postemergence) was 2. The “Nutsedge plant response rating” value ([3]; Rate 125 g/ha, Preemergence) was 0, the “Plant response rating, Nutsedge” value ([3]; Rate 250 g/ha, Postemergence) was 3 and the “Plant response rating, Soybean” value (soybean (Glycine max); Rate 62 g/ha, Postemergence) was 8. For the same molecule, the “Soybean plant response rating” value (soybean (Glycine max); Rate 62 g/ha, Preemergence) was 1, the “Soybean plant response rating” value (soybean (Glycine max); Rate 125 g/ha, Postemergence) was 9 and the “Plant response rating, Soybean” value (soybean (Glycine max); Rate 125 g/ha, Preemergence) was 5. For the same molecule, the “Plant response rating, Soybean” value (soybean (Glycine max); Rate 250 g/ha, Postemergence) was 9, the “Plant response rating, Soybean” value (soybean (Glycine max); [11]) was 7 and the “Wheat plant response rating” value ([4]; Rate 62 g/ha, Postemergence) was 3. For the same molecule, the “Wheat plant response rating” value ([4]; Rate 62 g/ha, Preemergence) was 2, the “Wheat plant response rating” value ([4]; Rate 125 g/ha, Postemergence) was 4 and the “Plant response rating, Wheat” value ([4]; Rate 125 g/ha, Preemergence) was 2. The “Plant response rating, Wheat” value ([4]; Rate 250 g/ha, Postemergence) was 5, the “Plant response rating, Wheat” value [4, 11] was 2 and the “Plant response rating, Sugarbeets” value ([5]; Rate 62 g/ha, Postemergence) was 10. The “Sugarbeets plant response rating” value ([5]; Rate 62 g/ha, Preemergence) was 10, the “Sugarbeets plant response rating” value ([5]; Rate 125 g/ha, Postemergence) was 10 and the “Plant response rating, Sugarbeets” value ([5]; Rate 125 g/ha, Preemergence) was 10. The “Plant response rating, Sugarbeets” value ([5]; Rate 250 g/ha, Postemergence) was 10, the “Plant response rating, Sugarbeets” value [5, 11] was 10 and the “Plant response rating, Corn” value (corn (Zea mays); Rate 62 g/ha, Postemergence) was 3. For the same molecule, the “Corn plant response rating” value (corn (Zea mays); Rate 62 g/ha) was 1, the “Plant response rating, Corn” value (corn (Zea mays); Rate 125 g/ha, Postemergence) was 4 and the “Corn plant response rating” value (corn (Zea mays); Rate 125 g/ha) was 1. The “Plant response rating, Corn” value (corn (Zea mays); Rate 250 g/ha, Postemergence) was 5, the “Plant response rating, Corn” value (corn (Zea mays); [11]) was 1 and the “Plant response rating, Velvetleaf” value ([6]; Rate 62 g/ha, Postemergence) was 8. For the same molecule, the “Velvetleaf plant response rating” value ([6]; Rate 62 g/ha, Preemergence) was 10, the “Velvetleaf plant response rating” value ([6]; Rate 125 g/ha, Postemergence) was 9 and the “Plant response rating, Velvetleaf” value ([6]; Rate 125 g/ha, Preemergence) was 10. For the same molecule, the “Plant response rating, Velvetleaf” value ([6]; Rate 250 g/ha, Postemergence) was 9, the “Plant response rating, Velvetleaf” value [6, 11] was 10 and the “Wild oats plant response rating” value (wild oat (Avena fatua); Rate 62 g/ha, Postemergence) was 4. The “Wild oats plant response rating” value (wild oat (Avena fatua); Rate 62 g/ha, Preemergence) was 6, the “Wild oats plant response rating” value (wild oat (Avena fatua); Rate 125 g/ha, Postemergence) was 5 and the “Plant response rating, Wild oats” value (wild oat (Avena fatua); Rate 125 g/ha, Preemergence) was 9. For the same molecule, the “Plant response rating, Wild oats” value (wild oat (Avena fatua); Rate 250 g/ha, Postemergence) was 6, the “Plant response rating, Wild oats” value (wild oat (Avena fatua); [11]) was 9 and the “Plant response rating, Giant foxtail” value ([7]; Rate 62 g/ha, Postemergence) was 8. For the same molecule, the “Giant foxtail plant response rating” value ([7]; Rate 62 g/ha, Preemergence) was 7, the “Giant foxtail plant response rating” value ([7]; Rate 125 g/ha, Postemergence) was 9 and the “Giant foxtail plant response rating” value ([7]; Rate 125 g/ha, Preemergence) was 9. For the same molecule, the “Plant response rating, Giant foxtail” value ([7]; Rate 250 g/ha, Postemergence) was 9, the “Plant response rating, Giant foxtail” value [7, 11] was 9 and the “Cocklebur plant response rating” value ([8]; Rate 62 g/ha) was 1. The “Plant response rating, Cocklebur” value ([8]; Rate 125 g/ha, Postemergence) was 7, the “Cocklebur plant response rating” value ([8]; Rate 125 g/ha) was 2 and the “Plant response rating, Cocklebur” value ([8]; Rate 250 g/ha, Postemergence) was 9. For the same molecule, the “Plant response rating, Cocklebur” value [8, 11] was 2, the “Plant response rating, Crabgrass” value ([9]; Rate 62 g/ha, Postemergence) was 7 and the “Crabgrass plant response rating” value ([9]; Rate 62 g/ha) was 8. The “Plant response rating, Crabgrass” value ([9]; Rate 125 g/ha, Postemergence) was 8, the “Crabgrass plant response rating” value ([9]; Rate 125 g/ha) was 10 and the “Plant response rating, Crabgrass” value ([9]; Rate 250 g/ha, Postemergence) was 10. For the same molecule, the “Plant response rating, Crabgrass” value [9, 11] was 10, the “Plant response rating, Redroot pigweed” value ([10]; Rate 62 g/ha, Postemergence) was 10 and the “Redroot pigweed plant response rating” value ([10]; Rate 62 g/ha, Preemergence) was 10. The “Redroot pigweed plant response rating” value ([10]; Rate 125 g/ha, Postemergence) was 10, the “Redroot pigweed plant response rating” value ([10]; Rate 125 g/ha, Preemergence) was 10 and the “Plant response rating, Redroot pigweed” value ([10]; Rate 250 g/ha, Postemergence) was 10. The “Plant response rating, Redroot pigweed” value [10, 11] was 10, the “Plant response rating, Rape” value (rape (Brassica napus); Rate 62 g/ha, Postemergence) was 9 and the “Rape plant response rating” value (rape (Brassica napus); Rate 62 g/ha, Preemergence) was 8. For the same molecule, the “Rape plant response rating” value (rape (Brassica napus); Rate 125 g/ha, Postemergence) was 10, the “Rape plant response rating” value (rape (Brassica napus); Rate 125 g/ha, Preemergence) was 10 and the “Plant response rating, Rape” value (rape (Brassica napus); Rate 250 g/ha, Postemergence) was 10. For the same molecule, the “Plant response rating, Rape” value (rape (Brassica napus); [11]) was 10.
